Ki, melting point and IC50 data for 16 compounds are collected here from paper PMC8623851, “The Structural Determinants for α1-Adrenergic/Serotonin Receptors Activity among Phenylpiperazine-Hydantoin Derivatives” (Molecules, 2021).

In data set [1] the target is α1-receptor. Kind of data set: Radioligand binding assay: affinity for α1-receptor ([3H]Prazosin, rat cortex). On the procedure: Tissue (rat cortex) was homogenized in 20 volumes of ice-cold 50 mM Tris-HCl buffer, pH 7.6, using an Ultra Turrax T25B homogenizer (IKA, Staufen, Germany). The homogenate was centrifuged at 20,000× g for 20 min. The resulting supernatant was decanted and pellet was resuspended in the same buffer and centrifuged again in the same conditions. The final pellet was resuspended in an appropriate volume of buffer (10 mg/1 mL).
The concentrations of analyzed compounds ranged from 10^−10 to 10^−5 M.
The incubation was terminated by rapid filtration over glass fiber filters FilterMate B (PerkinElmer, Waltham, MA, USA) using a 96-well FilterMate harvester (PerkinElmer, Waltham, MA, USA). Five rapid washes were performed with ice-cold 50 mM Tris-HCl buffer, pH 7.6.
The FilterMate was dried in a microwave and placed in a plastic bag (PerkinElmer, Waltham, MA, USA) and soaked in 10 mL of a liquid scintillation cocktail Ultima Gold MV (PerkinElmer, Waltham, MA, USA). After even distribution of the scintillation cocktail, the filter bag was sealed.
The radioactivity on the filter was measured by a MicroBeta TriLux 1450 scintillation counter (PerkinElmer, Waltham, MA, USA).
Radioligand binding data were analyzed using iterative curve fitting routines GraphPad Prism 3.0 (GraphPad Software, San Diego, CA, USA) using the built-in three parameter logistic model describing ligand competition binding to radioligand-labeled sites.

A further data set concerns the target human 5-HT6 receptor (Homo sapiens, UniProt P50406). Briefly: Radioligand binding assay 5-HT6 (HEK-293 membranes, [3H]-LSD).
Another data set has as its target human 5-HT7b receptor (Homo sapiens, UniProt P34969). Kind of data set: Radioligand binding assay 5-HT7 (HEK-293 membranes, [3H]-5-CT).
The target in a further data set is T1, human 5-HT1A receptor (Homo sapiens, UniProt P08908).
T1 sequence (P08908 1-422): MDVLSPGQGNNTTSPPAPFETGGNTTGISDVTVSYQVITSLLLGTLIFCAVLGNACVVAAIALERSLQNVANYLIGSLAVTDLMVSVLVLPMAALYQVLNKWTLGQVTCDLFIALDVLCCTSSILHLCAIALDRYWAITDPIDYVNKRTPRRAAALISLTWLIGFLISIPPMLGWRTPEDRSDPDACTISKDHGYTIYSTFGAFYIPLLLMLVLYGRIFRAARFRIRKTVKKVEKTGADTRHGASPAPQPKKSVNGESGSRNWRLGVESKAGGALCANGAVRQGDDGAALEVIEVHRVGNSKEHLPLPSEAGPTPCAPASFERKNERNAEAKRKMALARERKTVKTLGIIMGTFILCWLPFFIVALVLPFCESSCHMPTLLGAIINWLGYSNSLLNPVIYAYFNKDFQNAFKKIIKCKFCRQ
Kind of data set: Radioligand binding assay 5-HT1A (HEK-293 membranes, [3H]-8-OH-DPAT).

Data set [2] addresses α1-receptor. On the set-up: method as in PMID 31383628, PMID 29425815. The following applies: previously reported arylpiperazine hydantoin derivatives; cited from earlier work.
For a further data set, the target named is T2, α1A-AR (Homo sapiens, UniProt P35348).
T2 sequence (P35348 1-466): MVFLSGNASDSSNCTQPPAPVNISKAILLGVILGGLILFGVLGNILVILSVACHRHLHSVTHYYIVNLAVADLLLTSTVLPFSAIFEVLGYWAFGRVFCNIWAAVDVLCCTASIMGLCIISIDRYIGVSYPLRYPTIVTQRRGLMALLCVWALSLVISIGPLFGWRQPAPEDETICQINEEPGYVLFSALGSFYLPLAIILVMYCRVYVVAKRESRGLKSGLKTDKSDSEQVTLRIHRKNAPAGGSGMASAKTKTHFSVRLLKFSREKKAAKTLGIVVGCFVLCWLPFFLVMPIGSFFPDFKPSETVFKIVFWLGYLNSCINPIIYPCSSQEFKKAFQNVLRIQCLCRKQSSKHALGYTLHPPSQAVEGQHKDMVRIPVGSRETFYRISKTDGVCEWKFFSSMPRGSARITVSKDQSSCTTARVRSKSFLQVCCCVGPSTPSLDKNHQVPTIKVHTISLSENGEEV
Briefly: Intrinsic (functional) activity for α1A-AR. The data set is classed as cell-based. The following applies: antagonist potency; α1A-AR in rat tail artery (table title); 4–7 experimental results; read-out: IC50 ± SEM α1A-AR.

For the next data set, the target named is T3, α1B-AR (Homo sapiens, UniProt P35368).
T3 construct: expressed in transfected cells; host or cells: recombinant Aequoscreen cell line (frozen, ready to use)
T3 sequence (P35368 1-520): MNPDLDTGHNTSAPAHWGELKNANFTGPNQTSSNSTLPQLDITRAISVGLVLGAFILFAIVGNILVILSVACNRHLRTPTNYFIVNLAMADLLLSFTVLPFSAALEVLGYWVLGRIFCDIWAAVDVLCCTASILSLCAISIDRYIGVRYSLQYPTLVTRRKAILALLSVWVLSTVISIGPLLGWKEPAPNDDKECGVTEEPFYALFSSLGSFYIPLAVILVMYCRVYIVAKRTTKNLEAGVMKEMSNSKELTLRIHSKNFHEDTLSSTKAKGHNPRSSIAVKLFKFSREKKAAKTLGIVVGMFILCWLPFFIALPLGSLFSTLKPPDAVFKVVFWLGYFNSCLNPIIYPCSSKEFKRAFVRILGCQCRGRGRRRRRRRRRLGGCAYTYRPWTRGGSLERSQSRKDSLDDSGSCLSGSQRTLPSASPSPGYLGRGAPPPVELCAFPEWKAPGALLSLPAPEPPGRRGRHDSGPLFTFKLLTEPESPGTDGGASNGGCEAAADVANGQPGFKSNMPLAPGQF
Briefly: Intrinsic (functional) activity for α1B-AR (Aequoscreen). The data set is classed as cell-based. The following applies: antagonist potency; α1B-AR in mouse spleen (table title); 4–7 experimental results; read-out: IC50 ± SEM α1B-AR.

The structures appear in SMILES notation. Read-outs that look alike come from different tables or passages of the source.

Sequence of human 5-HT7b receptor (P34969 1-432): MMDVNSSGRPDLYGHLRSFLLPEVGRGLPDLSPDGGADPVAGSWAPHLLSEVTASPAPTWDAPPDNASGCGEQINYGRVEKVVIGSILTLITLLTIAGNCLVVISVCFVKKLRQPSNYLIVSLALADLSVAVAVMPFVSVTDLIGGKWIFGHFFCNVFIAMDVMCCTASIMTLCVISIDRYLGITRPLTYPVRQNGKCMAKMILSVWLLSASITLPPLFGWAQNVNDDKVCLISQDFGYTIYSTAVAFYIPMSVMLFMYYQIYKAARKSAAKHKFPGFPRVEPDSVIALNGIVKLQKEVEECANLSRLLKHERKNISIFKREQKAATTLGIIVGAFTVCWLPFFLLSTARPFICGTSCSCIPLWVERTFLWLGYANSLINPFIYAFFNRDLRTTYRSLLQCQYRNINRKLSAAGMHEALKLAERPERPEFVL
Sequence of human 5-HT6 receptor (P50406 whole entry): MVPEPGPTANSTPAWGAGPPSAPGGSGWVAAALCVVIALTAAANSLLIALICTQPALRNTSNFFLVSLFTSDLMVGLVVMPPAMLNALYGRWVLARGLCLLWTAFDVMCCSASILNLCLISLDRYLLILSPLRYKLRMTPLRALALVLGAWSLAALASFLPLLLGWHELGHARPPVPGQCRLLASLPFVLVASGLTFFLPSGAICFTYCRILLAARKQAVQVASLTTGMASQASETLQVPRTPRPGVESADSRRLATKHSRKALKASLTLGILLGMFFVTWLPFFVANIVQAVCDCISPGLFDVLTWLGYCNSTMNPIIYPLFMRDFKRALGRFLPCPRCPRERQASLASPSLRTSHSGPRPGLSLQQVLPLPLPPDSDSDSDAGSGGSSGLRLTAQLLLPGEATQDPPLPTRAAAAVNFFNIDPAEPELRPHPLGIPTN
Method for α1A-AR: An intrinsic activity assay was performed according to the manufacturer of the assay kit (Invitrogen, Thermo Fisher Scientific). […] Of the cell suspension, 32 µL per well was added to the Test Compound wells, the Unstimulated Control wells, and Stimulated Control wells and were incubated per 16–24 h. […] Then, both the agonist and the antagonist plate were incubated in a humidified 37 °C/5% CO2 incubator for 5 h. Then, cells were loaded with 8 µL of LiveBLAzer™-FRET B/G Substrate Mixture (CCF4-AM, Thermo Fisher Scientific) and incubated at room temperature for 2 h.
Method for α1B-AR: The Aequoscreen technology uses the recombinant cell lines with stable expression of the α1B or α1D adrenoreceptor and co-expression of apoaequorin and a GPCR as a system to detect the activation of the receptor, following the addition of an agonist, via the measurement of light emission. For measurement, cells (frozen, ready to use) were thawed and resuspended in 10-mL of assay buffer containing 5 μM coelenterazine h. This cell suspension was put in a 10-mL Falcon tube, fixed onto a rotating wheel and incubated overnight at RT° in the dark. Cells were diluted with Assay Buffer to 5000 cells/20 µL. In the first part, agonistic activity was tested. Potential agonists (standard and tested) 2× (50 μL/well), diluted in Assay Buffer, were prepared in 1/2 white polystryrene area plates, and the cell suspension was dispensed in 50 μL volume on the ligands using the injector. The light emitted was recorded for 20 s. In the second part, the agonistic activity was tested. Cells with tested compounds were incubated for 15 min at room temperature.

For `CCOc1ccccc1N1CCN(CC(O)CN2C(=O)N/C(=C\c3ccc(OC)cc3)C2=O)CC1` (stereo not shown) [Compound 7, (Z)-3-(3-(4-(2-ethoxyphenyl)piperazin-1-yl)-2-hydroxypropyl)-5-(4-methoxybenzylidene)imidazolidine-2,4-dione], the Ki came out at 99.1 ± 11.3 nM on α1-receptor [1], 10200 nM at human 5-HT6 receptor, 120 nM on human 5-HT7b receptor and 313 nM on human 5-HT1A receptor.

In the case of `COc1ccccc1N1CCN(CC(O)CN2C(=O)NC(C)(c3ccc(F)cc3)C2=O)CC1` (stereo not shown) [Compound 2], on α1-receptor [2], the Ki is 230 nM.

For the compound `COc1cccc(/C=C2\NC(=O)N(CC(O)CN3CCN(c4ccccc4OC)CC3)C2=O)c1` (stereo not shown) [Compound 4, (Z)-3-(2-hydroxy-3-(4-(2-methoxyphenyl)piperazin-1-yl)propyl)-5-(3-methoxybenzylidene)imidazolidine-2,4-dione], the Ki at α1-receptor [1] came to 187 ± 18.6 nM; at human 5-HT6 receptor it was 17600 nM; on human 5-HT7b receptor, 283 nM; on human 5-HT1A receptor, 530 nM.

`COc1ccc(/C=C2\NC(=O)N(CC(O)CN3CCN(c4ccccc4F)CC3)C2=O)cc1` (stereo not shown) [Compound 8, (Z)-3-(3-(4-(2-fluorophenyl)piperazin-1-yl)-2-hydroxypropyl)-5-(4-methoxybenzylidene)imidazolidine-2,4-dione]: the melting point lay within 104 to 106 °C. The compound further had a Ki at α1-receptor [1] of 144 ± 7.9 nM. Moreover, the Ki at human 5-HT6 receptor came out at 11700 nM. This compound displayed a Ki on human 5-HT7b receptor of 1040 nM. The compound also displayed an inhibition constant Ki at human 5-HT1A receptor of 3530 nM.

As for `CCOc1ccccc1N1CCN(CC(O)CN2C(=O)N/C(=C\c3cc(OC)c(OC)c(OC)c3)C2=O)CC1` (stereo not shown) [Compound 9, (Z)-3-(3-(4-(2-ethoxyphenyl)piperazin-1-yl)-2-hydroxypropyl)-5-(3,4,5-trimethoxybenzylidene)imidazolidine-2,4-dione], the melting point was in the range of 104 to 106 °C. Affinity at α1-receptor [1] was put at a Ki of 89.5 ± 9 nM. Also, affinity at human 5-HT6 receptor was put at a Ki of 2830 nM. Also, the Ki at human 5-HT7b receptor amounted to 1250 nM. Besides, on human 5-HT1A receptor, the Ki stood at 1870 nM.

As to `COc1cccc(/C=C2\NC(=O)N(CCCN3CCN(c4ccccc4Cl)CC3)C2=O)c1` [Compound 11, (Z)-3-(3-(4-(2-chlorophenyl)piperazin-1-yl)propyl)-5-(3-methoxybenzylidene)imidazolidine-2,4-dione], the melting point is 144 to 146 °C. On α1-receptor [1], this compound had a Ki of 44.8 ± 3.3 nM. For the same compound, the affinity at human 5-HT6 receptor, expressed as Ki, was 1720 nM. At human 5-HT7b receptor, this compound came in with a Ki of 152 nM. The same compound came in with a Ki at human 5-HT1A receptor of 319 nM.

With `CCOc1ccccc1N1CCN(CCCN2C(=O)N/C(=C\c3ccc(OC)cc3)C2=O)CC1` [Compound 13, (Z)-3-(3-(4-(2-ethoxyphenyl)piperazin-1-yl)propyl)-5-(4-methoxybenzylidene)imidazolidine-2,4-dione], the melting point was in the range of 180 to 183 °C. For the same compound, the Ki on α1-receptor [1] was 19.5 ± 2.6 nM. This compound also had a Ki on human 5-HT6 receptor of over 50000 nM. Affinity at human 5-HT7b receptor was put at a Ki of 114 nM. The compound also displayed a Ki on human 5-HT1A receptor of 45.8 nM.

In turn, `COc1ccccc1N1CCN(CCCN2C(=O)N/C(=C\c3cc(OC)c(OC)c(OC)c3)C2=O)CC1` [Compound 15, (Z)-3-(3-(4-(2-methoxyphenyl)piperazin-1-yl)propyl)-5-(3,4,5-trimethoxybenzylidene)imidazolidine-2,4-dione] gave a melting point of 130 to 132 °C. In addition, the Ki at α1-receptor [1] was 25.8 ± 2.9 nM. For the same compound, the Ki on human 5-HT6 receptor is 12300 nM. This compound gave a Ki at human 5-HT7b receptor of 668 nM. This compound displayed a Ki on human 5-HT1A receptor of 172 nM.

Turning to `COc1ccc(/C=C2\NC(=O)N(CC(O)CN3CCN(c4ccccc4OC)CC3)C2=O)cc1` (stereo not shown) [Compound 6, (Z)-3-(2-hydroxy-3-(4-(2-methoxyphenyl)piperazin-1-yl)propyl)-5-(4-methoxybenzylidene)imidazolidine-2,4-dione], the melting point was 176 to 178 °C. Moreover, the Ki on α1-receptor [1] is 145 ± 13.3 nM. Moreover, the Ki on human 5-HT6 receptor turned out to be 20400 nM. On human 5-HT7b receptor, this compound gave a Ki of 197 nM. For the same compound, on human 5-HT1A receptor, the Ki was determined as 282 nM.

With `COc1ccc(/C=C2\NC(=O)N(CCCN3CCN(c4ccccc4OC)CC3)C2=O)cc1` [Compound 12, (Z)-5-(4-methoxybenzylidene)-3-(3-(4-(2-methoxyphenyl)piperazin-1-yl)propyl)imidazolidine-2,4-dione], the inhibition constant Ki at α1-receptor [1] was 34.6 ± 4.6 nM; at human 5-HT6 receptor, 22000 nM; on human 5-HT7b receptor, 101 nM; at human 5-HT1A receptor, 20.6 nM. In addition, the half-maximal inhibitory concentration (IC50) came out at 12.8 ± 2.5 nM at α1A-AR and 8.5 ± 1.1 nM on α1B-AR.

For `CCOc1ccccc1N1CCN(CC(O)CN2C(=O)N/C(=C\c3cccc(OC)c3)C2=O)CC1` (stereo not shown) [Compound 5, (Z)-3-(3-(4-(2-ethoxyphenyl)piperazin-1-yl)-2-hydroxypropyl)-5-(3-methoxybenzylidene)imidazolidine-2,4-dione], the Ki on α1-receptor [1] was found to be 75.9 ± 2.3 nM; on human 5-HT6 receptor, 19200 nM; at human 5-HT7b receptor, 79 nM; on human 5-HT1A receptor, 557 nM.

As for `CCOc1ccccc1N1CCN(CCCN2C(=O)N/C(=C\c3cccc(OC)c3)C2=O)CC1` [Compound 10, (Z)-3-(3-(4-(2-ethoxyphenyl)piperazin-1-yl)propyl)-5-(3-methoxybenzylidene)imidazolidine-2,4-dione], the Ki at α1-receptor [1] came to 20.2 ± 4.1 nM; on human 5-HT1A receptor, 103 nM. Also, the IC50 on α1A-AR was 7.2 ± 1.1 nM; on α1B-AR, 9.2 ± 1.3 nM.

Turning to `Cc1ccc(N(CC2=NCCN2)c2cccc(O)c2)cc1` [fentolamine, reference compound], the Ki at α1-receptor [1] was found to be 15.7 ± 1.5 nM.

On to `COc1ccc(/C=C2\NC(=O)N(CCCN3CCN(c4ccccc4OC)CC3)C2=O)cc1OC` [Compound 14], for which the Ki at α1-receptor [1] turned out to be 11.9 ± 2.2 nM; on human 5-HT6 receptor, 15800 nM; at human 5-HT7b receptor, 189 nM; at human 5-HT1A receptor it was 128 nM. Further, the IC50 on α1A-AR came to 57.6 ± 7.2 nM; on α1B-AR, 182 ± 21.4 nM.

Consider `CCOc1ccccc1OCCN[C@H](C)Cc1ccc(OC)c(S(N)(=O)=O)c1` [Tamsulosin, reference compound], for which the IC50 at α1B-AR worked out at 0.13 ± 0.02 nM.

In the case of `CCOc1ccccc1N1CCN(CCCN2C(=O)N/C(=C\c3cc(OC)c(OC)c(OC)c3)C2=O)CC1` [Compound 16, (Z)-3-(3-(4-(2-ethoxyphenyl)piperazin-1-yl)propyl)-5-(3,4,5-trimethoxybenzylidene)imidazolidine-2,4-dione], the Ki was 14.7 ± 1.1 nM at α1-receptor [1], 15200 nM at human 5-HT6 receptor, 138 nM at human 5-HT7b receptor and 165 nM on human 5-HT1A receptor. The IC50 is 19.1 ± 3.4 nM on α1A-AR and 0.82 ± 0.1 nM on α1B-AR.

In general, Ki refers to the dissociation constant of the complex between target and ligand, obtained from inhibition or displacement. For orientation: melting point means the temperature of the solid-liquid transition. Broadly, the IC50 is the concentration that inhibits the measured activity by half.
